Assays:
Format in all cases: cell-based, human
[1] = tested on: CD11b; assay: Cell surface antigen expression by flow cytometry (Table 2); details: CADA 16 μM, 4 days, percentage of positive cells, unit not given
Protocol: (§1) Expression of various other surface antigens was also examined in MT-4 cells, SupT1 cells and PBMCs after incubation with CADA (16 μM) or CADA-free medium at 37° C. for 4 days. After washing with phosphate-buffered saline (PBS) containing 2% FCS(fetal calf serum), the cells were incubated with mAb (as indicated in Table 1) for 20 min at 4° C. Then the cells were washed, fixed with 1% formaldehyde and analyzed by flow cytometry. All mAbs were purchased from Becton-Dickinson (Erembodegem, Belgium).

[2] = tested on: CD25; assay: as above; details: CADA 16 μM, 4 days, percentage of positive cells, unit not given
Protocol: as §1

[3] = tested on: CD26; assay: as above; details: CADA 16 μM, 4 days, percentage of positive cells, unit not given
Protocol: as §1

[4] = tested on: CD28; assay: as above; details: CADA 16 μM, 4 days, percentage of positive cells, unit not given
Protocol: as §1

[5] = tested on: CD2; assay: as above; details: CADA 16 μM, 4 days, percentage of positive cells, unit not given
Protocol: as §1

[6] = tested on: CD38; assay: as above; details: CADA 16 μM, 4 days, percentage of positive cells, unit not given
Protocol: as §1

[7] = tested on: CD3; assay: as above; details: CADA 16 μM, 4 days, percentage of positive cells, unit not given
Protocol: as §1

[8] = tested on: CD45RA; assay: as above; details: CADA 16 μM, 4 days, percentage of positive cells, unit not given
Protocol: as §1

[9] = tested on: CD45; assay: as above; details: CADA 16 μM, 4 days, percentage of positive cells, unit not given
Protocol: as §1

[10] = tested on: CD57; assay: as above; details: CADA 16 μM, 4 days, percentage of positive cells, unit not given
Protocol: as §1

[11] = tested on: CD5; assay: as above; details: CADA 16 μM, 4 days, percentage of positive cells, unit not given
Protocol: as §1

[12] = tested on: CD71; assay: as above; details: CADA 16 μM, 4 days, percentage of positive cells, unit not given
Protocol: as §1

[13] = tested on: CD8; assay: as above; details: CADA 16 μM, 4 days, percentage of positive cells, unit not given
Protocol: as §1

[14] = tested on: HLA-DR; assay: as above; details: CADA 16 μM, 4 days, percentage of positive cells, unit not given
Protocol: as §1

[15] = tested on: TCRα/β; assay: as above; details: CADA 16 μM, 4 days, percentage of positive cells, unit not given
Protocol: as §1

[16] = tested on: CCR5; assay: Cell surface expression of HIV coreceptor; details: incubation of the cells with CADA for 4 days
Protocol: as §1

[17] = tested on: CXCR4; assay: Cell surface expression of HIV coreceptor; details: incubation of the cells with CADA for 4 days
Protocol: as §1

In the case of `C=C1CN(S(=O)(=O)c2ccc(C)cc2)CCCN(Cc2ccccc2)CCCN(S(=O)(=O)c2ccc(C)cc2)C1` [CADA], the “CD11b cell surface antigen expression” value ([1]; MT-4 T-cells) is reported as 9.7, the “CD11b cell surface antigen expression” value ([1]; PBMCs) is reported as 12.3 and the “CD11b cell surface antigen expression” value ([1]; SupT1 T-cells) is reported as 0.6. The “CD25 cell surface antigen expression” value ([2]; MT-4 T-cells) was 93.3, the “CD25 cell surface antigen expression” value ([2]; PBMCs) was 35.5 and the “CD25 cell surface antigen expression” value ([2]; SupT1 T-cells) was 1. The “CD26 cell surface antigen expression” value ([3]; MT-4 T-cells) was 3.2, the “CD26 cell surface antigen expression” value ([3]; PBMCs) was 3.2 and the “CD26 cell surface antigen expression” value ([3]; SupT1 T-cells) was 0.3. For the same molecule, the “CD28 cell surface antigen expression” value ([4]; MT-4 T-cells) was 6.6, the “CD28 cell surface antigen expression” value ([4]; PBMCs) was 89.6 and the “CD28 cell surface antigen expression” value ([4]; SupT1 T-cells) was 90.8. For the same molecule, the “CD2 cell surface antigen expression” value ([5]; MT-4 T-cells) was 2.6, the “CD2 cell surface antigen expression” value ([5]; PBMCs) was 90.7 and the “CD2 cell surface antigen expression” value ([5]; SupT1 T-cells) was 0.5. For the same molecule, the “CD38 cell surface antigen expression” value ([6]; MT-4 T-cells) was 84.5, the “CD38 cell surface antigen expression” value ([6]; PBMCs) was 73.2 and the “CD38 cell surface antigen expression” value ([6]; SupT1 T-cells) was 99.1. For the same molecule, the “CD3 cell surface antigen expression” value ([7]; MT-4 T-cells) was 5.9, the “CD3 cell surface antigen expression” value ([7]; PBMCs) was 89.4 and the “CD3 cell surface antigen expression” value ([7]; SupT1 T-cells) was 2.7. The “CD45RA cell surface antigen expression” value ([8]; MT-4 T-cells) was 2.0, the “CD45RA cell surface antigen expression” value ([8]; PBMCs) was 64.3 and the “CD45RA cell surface antigen expression” value ([8]; SupT1 T-cells) was 0.5. The “CD45 cell surface antigen expression” value ([9]; MT-4 T-cells) was 3.57, the “CD45 cell surface antigen expression” value ([9]; PBMCs) was 98.3 and the “CD45 cell surface antigen expression” value ([9]; SupT1 T-cells) was 99.6. For the same molecule, the “CD57 cell surface antigen expression” value ([10]; MT-4 T-cells) was 1.5, the “CD57 cell surface antigen expression” value ([10]; PBMCs) was 2.3 and the “CD57 cell surface antigen expression” value ([10]; SupT1 T-cells) was 82.4. For the same molecule, the “CD5 cell surface antigen expression” value ([11]; MT-4 T-cells) was 99.1, the “CD5 cell surface antigen expression” value ([11]; PBMCs) was 80.6 and the “CD5 cell surface antigen expression” value ([11]; SupT1 T-cells) was 93.9. For the same molecule, the “CD71 cell surface antigen expression” value ([12]; MT-4 T-cells) was 98.8, the “CD71 cell surface antigen expression” value ([12]; PBMCs) was 27.6 and the “CD71 cell surface antigen expression” value ([12]; SupT1 T-cells) was 33.9. The “CD8 cell surface antigen expression” value ([13]; MT-4 T-cells) was 3.5, the “CD8 cell surface antigen expression” value ([13]; PBMCs) was 25.1 and the “CD8 cell surface antigen expression” value ([13]; SupT1 T-cells) was 92.3. The “HLA-DR cell surface antigen expression” value ([14]; MT-4 T-cells) was 98.7, the “HLA-DR cell surface antigen expression” value ([14]; PBMCs) was 27 and the “HLA-DR cell surface antigen expression” value ([14]; SupT1 T-cells) was 1.7. The “TCRα/β cell surface antigen expression” value ([15]; MT-4 T-cells) was 1.1, the “TCRα/β cell surface antigen expression” value ([15]; PBMCs) was 82.3 and the “TCRα/β cell surface antigen expression” value ([15]; SupT1 T-cells) was 1.6. For the same molecule, the “cell surface expression of CCR5” value [16] was “remained unchanged” and the “cell surface expression of CXCR4” value [17] was “remained unchanged”.
